These results are taken from patent publication US12391737B2, “Soluble NPY2 receptor agonists” (Boehringer Ingelheim International GmbH, priority 2020, dated 2025).

Bounds are passed on as bounds.

For one series, the system named is NMRI mice. Kind of series: Effect on acute food intake in normal NMRI mice. The settings on record: 5 nmol/kg subcutaneously once. Type of series: in vivo. The method, then: Male NMRI mice were obtained from Charles River (Charles River, Research Models & Services Germany GmbH) or from JanVier (JanVier Labs, France) at 5 weeks of age. […] Room temperature was controlled to 21° C.±1° C., with 60%±20% humidity.
Animals were transferred 5-7 days before the start of the study to a real-time food intake monitoring system, HM-2 system (MBRose, Denmark), to allow acclimatization to experimental conditions. As the animals were uniquely identified with microchips, each individual animal was identified by its microchip upon entry and exit from the food channel. Randomization of the mice for each study group (n=7-8) was based on body weight measured the day before the start of the study. A vehicle-treated (50 mM phosphate buffer pH7 with 5% Mannitol) group was included in each experiment. Six hours before the start of the night phase animals were fasted. One hour before the dark phase animals were dosed once subcutaneously (5 nmol/kg) with test peptide. […] The food intake of the treated groups was normalized (in %) to the average food intake of the group receiving vehicle (Table 7). Statistical significance was evaluated using One-way analysis of variance with Turkey's multiple comparison test. P<0.05 was considered statistically significant.

Series [1] has as its target T1, Human Neuropeptide Y2 Receptor (Homo sapiens, UniProt P49146).
T1 construct: purchased CHEMICON HTS066M
T1 sequence (P49146 1-381): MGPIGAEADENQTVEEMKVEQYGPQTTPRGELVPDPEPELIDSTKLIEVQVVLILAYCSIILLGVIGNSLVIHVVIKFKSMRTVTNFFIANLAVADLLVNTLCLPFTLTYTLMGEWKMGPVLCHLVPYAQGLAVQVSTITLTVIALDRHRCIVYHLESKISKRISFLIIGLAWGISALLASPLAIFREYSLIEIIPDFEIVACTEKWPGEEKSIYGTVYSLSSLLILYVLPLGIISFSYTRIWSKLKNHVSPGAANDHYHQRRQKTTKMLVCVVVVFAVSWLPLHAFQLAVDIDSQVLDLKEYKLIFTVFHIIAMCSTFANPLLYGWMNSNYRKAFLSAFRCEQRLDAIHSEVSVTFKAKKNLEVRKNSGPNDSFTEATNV
Kind of series: Radioligand binding competition assay (RLB). The following applies: Table 3, 125I-PYY(1-36) competition; read-out: Ki. The gist of the method:
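Displacement of radioligand is measured after 2 h at room temperature with receptor membranes in Mg2+/Ca2+ HEPES buffer, pH 7.4. Filter-bound radioactivity is counted and IC50 obtained from curve fitting.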

Another series in a line: Solubility determination. The following applies: for Sol6: pH 6; for Sol7: pH 7. The gist of the method:
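First, TFA-salt peptide was added to 0.1 M sodium diphosphate (pH 6.4 or 7.0) to 10 mg/ml and shaken 2 h at room temperature. Next, insoluble material was filtered off. Finally, filtrate and control, each 1 mg/ml in 50% acetonitrile, were compared by reversed-phase chromatography.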

The target of series [2] is T2, human NPY5 receptor (hY5R) (Homo sapiens, UniProt Q15761).
T2 sequence (Q15761 1-445): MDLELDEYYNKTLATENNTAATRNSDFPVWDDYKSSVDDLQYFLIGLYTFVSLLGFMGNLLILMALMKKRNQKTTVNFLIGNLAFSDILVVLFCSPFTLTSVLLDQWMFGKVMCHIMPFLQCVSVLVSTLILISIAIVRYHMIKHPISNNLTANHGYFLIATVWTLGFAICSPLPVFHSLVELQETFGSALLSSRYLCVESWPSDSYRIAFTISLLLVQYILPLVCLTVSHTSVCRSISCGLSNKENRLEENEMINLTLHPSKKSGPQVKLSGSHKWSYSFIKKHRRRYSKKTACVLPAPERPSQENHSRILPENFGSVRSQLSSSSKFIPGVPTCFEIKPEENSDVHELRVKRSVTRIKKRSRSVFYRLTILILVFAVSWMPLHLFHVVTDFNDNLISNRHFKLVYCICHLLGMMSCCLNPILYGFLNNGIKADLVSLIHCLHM
Kind of series: HTRF cAMP Gi assay, hY5R.

In series [3] the target is T1, Human Neuropeptide Y2 Receptor. Briefly: Activity (RLB binding) after incubation in solutions at different pH values. The settings on record: apparent Ki of filtrate after incubation at pH8.1-8.2, assumed 10 mg/ml; read-out: RLB 8 (pH8.1-8.2). The method, then:
The filtration RLB assay was carried out in 96-well plates in a final volume of 100 μl per well. Freeze-dried test peptides were dissolved in 100% dimethyl sulfoxide (DMSO) to stock solutions of 1 mM and serial dilutions were performed in assay buffer (50 mM HEPES, 5 mM MgCl2, 1 mM CaCl2, pH 7.4) containing 0.2% ovalbumin. […] Next, 80 μL membranes (HTS066M, ChemiSCREEN™ Human Neuropeptide Y2 Receptor Membrane Preparation, CHEMICON) were added to each well to give a final protein concentration of 0.5 μg/well. The plates were sealed and incubated at room temperature for 2 hours in a plate shaker set at 400 rpm. The incubation was stopped by vacuum filtration onto 0.5% polyethylene amine (PE) presoaked GF/C filters using a 96-well FilterMate™ harvester (Perkin Elmer) followed by four washes with 300 μl/well ice-cold wash buffer (50 mM HEPES, 500 mM NaCl, pH7.4). Filter plates were then dried for 60 min at room temperature and the bottom of the plates was sealed with backing tape UniFilter-96. Finally, 50 μl/well scintillation counter cocktail (Microscint20, Packard) was added and the radioactivity was counted in the Packard TopCount NXT scintillation counter. IC50 values (the half maximal inhibitory concentration of the agonist) were calculated by nonlinear regression analysis of sigmoidal dose-response curves.
The peptide was (partially) dissolved by shaking the filter unit horizontally at approx. 400 rpm for 2 hours at room temperature. The sample was filtered to remove any insoluble particles.

Series [4] deals with T3, human NPY1 receptor (hY1R) (Homo sapiens, UniProt P25929).
T3 construct: expressed in transfected cells; host or cells: CHO-K1
T3 sequence (P25929 1-384): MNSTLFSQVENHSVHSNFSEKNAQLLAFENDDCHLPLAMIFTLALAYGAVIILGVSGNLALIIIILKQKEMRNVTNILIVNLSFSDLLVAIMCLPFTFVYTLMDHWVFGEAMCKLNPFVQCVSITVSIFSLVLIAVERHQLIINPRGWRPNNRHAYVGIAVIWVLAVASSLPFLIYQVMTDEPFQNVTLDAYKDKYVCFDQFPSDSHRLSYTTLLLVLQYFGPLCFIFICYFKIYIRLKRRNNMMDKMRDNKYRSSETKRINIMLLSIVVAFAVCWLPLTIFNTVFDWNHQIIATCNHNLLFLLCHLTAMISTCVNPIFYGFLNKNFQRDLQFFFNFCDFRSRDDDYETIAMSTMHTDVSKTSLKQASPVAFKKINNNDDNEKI
Briefly: HTRF cAMP Gi assay, hY1R. The settings on record: CHO-K1 cells. Type of series: cell-based.

The target of series [5] is T4, human NPY2 receptor (hY2R) (Homo sapiens, UniProt P49146).
T4 sequence (P49146 1-381): T1 sequence (P49146 1-381)
Kind of series: HTRF cAMP Gi assay, hY2R.
Text: The Homogenous Time Resolved fluorescence (HTRF) technology optimized for Gi coupled receptors has thoroughly been described in Cisbio cAMP Gi kit manual. Briefly, the production of intracellular cAMP will generate a competition between unlabeled cAMP and exogenously added d2-cAMP for anti-cAMP antibodies conjugated to cryptate. CHO-K1 cells stably expressing the human NPY1, NPY2, NPY4 and NPY5 receptors were used with the cells brought to life from a frozen stock immediately before assay performance. 2000 cells per well were applied for all four NPY receptor subtype assays. A 384-well format was used applying a total volume of 20 μl using 5 μl cells, 2.5 μl peptide agonist, 2.5 μl forskolin and 5 μl of each of the fluorophores. […] Concentration-response evaluation of compounds was performed with 11 concentrations of agonist peptides (covering 3 decades). EC50 values were calculated by nonlinear regression using sigmoid concentration-response with variable slope.

Series [6] has as its target T5, human NPY4 receptor (hY4R) (Homo sapiens, UniProt P50391).
T5 construct: expressed in transfected cells; host or cells: CHO-K1
Kind of series: HTRF cAMP Gi assay, hY4R. In kind it is cell-based. The following applies: CHO-K1 cells.

T5 sequence (P50391 whole entry): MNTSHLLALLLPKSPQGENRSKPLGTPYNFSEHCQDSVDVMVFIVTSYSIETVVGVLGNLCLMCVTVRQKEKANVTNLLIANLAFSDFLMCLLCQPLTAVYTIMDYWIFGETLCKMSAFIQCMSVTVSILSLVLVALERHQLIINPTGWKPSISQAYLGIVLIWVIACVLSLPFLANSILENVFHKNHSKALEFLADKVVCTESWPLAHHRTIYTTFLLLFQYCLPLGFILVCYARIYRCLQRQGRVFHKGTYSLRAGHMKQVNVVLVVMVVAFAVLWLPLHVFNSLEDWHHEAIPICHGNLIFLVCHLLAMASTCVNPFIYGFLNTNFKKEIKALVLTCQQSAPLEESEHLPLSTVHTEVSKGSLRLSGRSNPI

In the case of `CC(C)CC(=O)N[C@@H](C)C(=O)N1CCC[C@H]1C(=O)N[C@@H](C)C(=O)N[C@@H](CCCCNC(=O)CCCCCNC(=O)CC[C@H](NC(=O)CCCCCCCCCCCCCCCCC(=O)O)C(=O)O)C(=O)N1CCC[C@H]1C(=O)N[C@@H](CCC(=O)O)C(=O)N[C@@H](CCC(=O)O)C(=O)N[C@@H](CC(=O)O)C(=O)N[C@@H](C)C(=O)N[C@H](C(=O)N1CCC[C@H]1C(=O)N[C@@H](CCC(=O)O)C(=O)N[C@@H](CCC(=O)O)C(=O)N[C@@H](CC(C)C)C(=O)N[C@@H](CCC(N)=O)C(=O)N[C@@H](CCCNC(=N)N)C(=O)N[C@@H](Cc1ccc(O)cc1)C(=O)N[C@@H](Cc1ccc(O)cc1)C(=O)N[C@H](C(=O)N[C@@H](CO)C(=O)N[C@@H](CC(C)C)C(=O)N[C@@H](CCCNC(=N)N)C(=O)N[C@@H](Cc1c[nH]cn1)C(=O)N[C@@H](Cc1ccc(O)cc1)C(=O)N[C@@H](Cc1ccc(O)cc1)C(=O)N[C@@H](CC(N)=O)C(=O)N[C@@H](Cc1c[nH]c2ccccc12)C(=O)N[C@@H](CC(C)C)C(=O)N[C@H](C(=O)N[C@@H](CCCNC(=N)N)C(=O)N[C@@H](CCC(N)=O)C(=O)N[C@@H](CCCNC(=N)N)C(=O)N[C@@H](Cc1ccc(O)cc1)C(N)=O)[C@@H](C)O)C(C)C)[C@@H](C)O` [Compound 26, N{alpha-4}-(3-methylbutanoyl)-N{epsilon-7}-(6-[(4S)-4-carboxy-4-(17-carboxyheptadecanamido)butanamido]hexanoyl)[4A,6A,7K,9E,13T,18Q,22V,28Y,30W,31L]-hPYY(4-36)], the “Acute Food Intake 24 h [% vehicle]” value in the series with NMRI mice is given as 53 % vehicle. Also, the Ki in series [1] was 5.64 nM. In “Solubility determination”, the “Sol6” value came to 9.2 mg/mL and the “Sol7” value came out at 9.1 mg/mL. For the same compound, the half-maximal effective concentration (EC50) in series [2] is above 5 µM.
For the compound `CC(C)CC(=O)N[C@@H](C)C(=O)N1CCC[C@H]1C(=O)N[C@@H](CCC(=O)O)C(=O)N[C@@H](CCCCNC(=O)CCCCCNC(=O)CC[C@H](NC(=O)CCCCCCCCCCCCCCCCC(=O)O)C(=O)O)C(=O)N1CCC[C@H]1C(=O)N[C@@H](CCC(=O)O)C(=O)N[C@@H](C)C(=O)N[C@@H](CC(=O)O)C(=O)N[C@@H](C)C(=O)N[C@@H](CO)C(=O)N1CCC[C@H]1C(=O)N[C@@H](CCC(=O)O)C(=O)N[C@@H](CCC(=O)O)C(=O)N[C@@H](CC(C)C)C(=O)N[C@@H](CCC(N)=O)C(=O)N[C@@H](CCCNC(=N)N)C(=O)N[C@@H](Cc1ccc(O)cc1)C(=O)N[C@@H](Cc1ccc(O)cc1)C(=O)N[C@H](C(=O)N[C@@H](C)C(=O)N[C@@H](CC(C)C)C(=O)N[C@@H](CCCNC(=N)N)C(=O)N[C@@H](Cc1c[nH]cn1)C(=O)N[C@@H](Cc1ccc(O)cc1)C(=O)N[C@@H](Cc1ccc(O)cc1)C(=O)N[C@@H](CC(N)=O)C(=O)N[C@@H](Cc1c[nH]c2ccccc12)C(=O)N[C@@H](CC(C)C)C(=O)N[C@H](C(=O)N[C@@H](CCCNC(=N)N)C(=O)N[C@@H](CCC(N)=O)C(=O)N[C@@H](CCCNC(=N)N)C(=O)N[C@@H](Cc1ccc(O)cc1)C(N)=O)[C@@H](C)O)C(C)C` [Compound 163, N{alpha-4}-(3-methylbutanoyl)-N{epsilon-7}-(6-[(4S)-4-carboxy-4-(17-carboxyheptadecanamido)butanamido]hexanoyl)-[4A,7K,9E,10A,18Q,22V,23A,28Y,30W,31L]-hPYY(4-36)], the results for the Ki in series [3] and in series [1] were 4.9 nM and 0.67 nM, respectively. Further, the concentration for a half-maximal effect (EC50) in series [4] was above 5 µM; in series [2], above 5 µM; in series [5], 0.13 nM; in series [6], above 5 µM. Also, in “Solubility determination”, the “Sol6” value is 8.9 mg/mL. The “Sol7” value in “Solubility determination” was determined as 9.2 mg/mL.
Turning to `CC[C@H](C)[C@H](NC(=O)[C@H](CCC(=O)O)NC(=O)[C@H](CCC(=O)O)NC(=O)[C@@H]1CCCN1C(=O)[C@@H](NC(=O)[C@H](C)NC(=O)[C@H](CC(=O)O)NC(=O)[C@H](C)NC(=O)[C@H](CCC(=O)O)NC(=O)[C@@H]1CCCN1C(=O)[C@H](CCCCNC(=O)CCCCCNC(=O)CC[C@H](NC(=O)CCCCCCCCCCCCCCCCC(=O)O)C(=O)O)NC(=O)[C@H](CCC(=O)O)NC(=O)[C@@H]1CCCN1C(=O)[C@H](C)NC(=O)CC(C)C)[C@@H](C)O)C(=O)N[C@@H](CCC(N)=O)C(=O)N[C@@H](CCCNC(=N)N)C(=O)N[C@@H](Cc1ccc(O)cc1)C(=O)N[C@@H](Cc1ccc(O)cc1)C(=O)N[C@H](C(=O)N[C@@H](CO)C(=O)N[C@@H](CC(C)C)C(=O)N[C@@H](CCCNC(=N)N)C(=O)N[C@@H](Cc1c[nH]cn1)C(=O)N[C@@H](Cc1ccc(O)cc1)C(=O)N[C@@H](Cc1ccc(O)cc1)C(=O)N[C@@H](CC(N)=O)C(=O)N[C@@H](Cc1c[nH]c2ccccc12)C(=O)N[C@@H](CC(C)C)C(=O)N[C@H](C(=O)N[C@@H](CCCNC(=N)N)C(=O)N[C@@H](CCC(N)=O)C(=O)N[C@@H](CCCNC(=N)N)C(=O)N[C@@H](Cc1ccc(O)cc1)C(N)=O)[C@@H](C)O)C(C)C` [Compound 7, N{alpha-4}-(3-methylbutanoyl)-N{epsilon-7}-(6-[(4S)-4-carboxy-4-(17-carboxyheptadecanamido)butanamido]hexanoyl)[4A,7K,9E,10A,13T,17I,18Q,22V,28Y,30W,31L]-hPYY(4-36)], the Ki in series [3] was 3.1 nM; in series [1], 1.04 nM. Besides, in the series on NMRI mice, the “Acute Food Intake 24 h [% vehicle]” value is reported as 38 % vehicle. The half-maximal effective concentration (EC50) in series [4], in series [2] and in series [6] was above 5 µM throughout. In addition, the “Sol6” value in “Solubility determination” came to 8.9 mg/mL. In addition, the “Sol7” value in “Solubility determination” was 9.2 mg/mL.
